Reference: ChEMBL document CHEMBL3272096, “Semisynthetic cephalosporins. Synthesis and structure-activity relationships of 7-sulfonylacetamido-3-cephem-4-carboxylic acids” (1976)
In brackets after ≈: the same amount, converted by molar mass. Activity calls are given as the source filed them. The rule behind the calls is not given here.

Legend:
Enterococcus faecalis = test: Antibacterial activity against Streptococcus faecalis by two-fold agar dilution method; format: functional
Escherichia coli [1] = test: Antibacterial activity against Escherichia coli 12140 infected in sc dosed mouse assessed as host protection administered at 1 and 5 hrs post-infection; format: functional; settings: Escherichia coli, 12140, sc; read-out: PD50
Klebsiella pneumoniae = test: Antibacterial activity against Klebsiella pneumoniae 4200 by two-fold agar dilution method; format: functional
Salmonella paratyphi = test: Antibacterial activity against Salmonella paratyphi ATCC 12176 by two-fold agar dilution method; format: functional, Salmonella enterica subsp. enterica serovar Paratyphi A; settings: Salmonella enterica
Escherichia coli [2] = test: Antibacterial activity against Escherichia coli 12140 by two-fold agar dilution method; format: functional
Shigella flexneri = test: Antibacterial activity against Shigella paradysenteriae HH 117 by two-fold agar dilution method; format: functional
Staphylococcus aureus [3] = test: Antibacterial activity against Staphylococcus aureus 23390 by two-fold agar dilution method; format: functional, organism-based
Pseudomonas aeruginosa = test: Antibacterial activity against Pseudomonas aeruginosa by two-fold agar dilution method; format: functional, organism-based
Klebsiella aerogenes = test: Antibacterial activity against Enterobacter aerogenes ATCC 13048 by two-fold agar dilution method; format: functional
Staphylococcus aureus [4] = test: Antibacterial activity against penicillin G-resistant Staphylococcus aureus HH 127 by two-fold agar dilution method; format: functional

Row | Compound | MIC (Enterococcus faecalis) | ED50 (Escherichia coli [1]) | MIC (Klebsiella pneumoniae) | MIC (Salmonella paratyphi) | MIC (Escherichia coli [2]) | MIC (Shigella flexneri) | Activity (Staphylococcus aureus [3]) | Activity (Pseudomonas aeruginosa) | MIC (Klebsiella aerogenes) | MIC (Staphylococcus aureus [4])
1 | CCCCS(=O)(=O)CC(=O)N[C@@H]1C(=O)N2C(C(=O)[O-])=C(CSc3nnc(C)s3)CS[C@H]12.[Na+] | > 13 µg/mL | > 50 mg/kg | 6.2 µg/mL | 1.6 µg/mL | 6.2 µg/mL | 6.2 µg/mL | Active | inactive | 25 µg/mL | 0.1 µg/mL
2 | Cn1nnnc1SCC1=C(C(=O)O)N2C(=O)[C@@H](NC(=O)CSC(F)(F)F)[C@H]2SC1 [CEFAZAFLUR] | – | 2 mg/kg | 0.8 µg/mL (≈ 1.7 µM) | 0.4 µg/mL (≈ 0.85 µM) | 0.4 µg/mL (≈ 0.85 µM) | 0.2 µg/mL (≈ 0.425 µM) | Active | – | 1.6 µg/mL (≈ 3.4 µM) | 0.4 µg/mL (≈ 0.85 µM)
3 | CCCCS(=O)(=O)CC(=O)N[C@@H]1C(=O)N2C(C(=O)O)=C(COC(C)=O)CS[C@H]12 | > 13 µg/mL | 180 mg/kg | 13 µg/mL (≈ 29.9 µM) | 3.1 µg/mL (≈ 7.13 µM) | 13 µg/mL (≈ 29.9 µM) | 6.2 µg/mL (≈ 14.3 µM) | Active | inactive | 50 µg/mL (≈ 115 µM) | 0.2 µg/mL (≈ 0.46 µM)
4 | CC(=O)OCC1=C(C(=O)[O-])N2C(=O)[C@@H](NC(=O)C(C)S(C)(=O)=O)[C@H]2SC1.[Na+] (some centres not stated) | > 13 µg/mL | – | 3.1 µg/mL | 13 µg/mL | 25 µg/mL | 25 µg/mL | Active | inactive | 50 µg/mL | 3.1 µg/mL
5 | CC(=O)OCC1=C(C(=O)O)N2C(=O)[C@@H](NC(=O)Cc3cccs3)[C@H]2SC1 [CEPHALOTHIN] | – | 50 mg/kg | 3.1 µg/mL (≈ 7.82 µM) | 1.6 µg/mL (≈ 4.04 µM) | 3.1 µg/mL (≈ 7.82 µM) | 6.2 µg/mL (≈ 15.6 µM) | Active | – | 50 µg/mL (≈ 126 µM) | 0.2 µg/mL (≈ 0.504 µM)
6 | CS(=O)(=O)CC(=O)N[C@@H]1C(=O)N2C(C(=O)[O-])=C(CSc3cnn[nH]3)CS[C@H]12.[Na+] | > 13 µg/mL | – | 6.2 µg/mL | 6.2 µg/mL | 13 µg/mL | 13 µg/mL | Active | inactive | > 200 µg/mL | 1.6 µg/mL
7 | Cc1nnc(SCC2=C(C(=O)O)N3C(=O)[C@@H](NC(=O)Cn4cnnn4)[C@H]3SC2)s1 [CEFAZOLIN] | – | 6 mg/kg | 0.8 µg/mL (≈ 1.76 µM) | 0.8 µg/mL (≈ 1.76 µM) | 0.8 µg/mL (≈ 1.76 µM) | 0.4 µg/mL (≈ 0.88 µM) | Active | – | 1.6 µg/mL (≈ 3.52 µM) | 0.4 µg/mL (≈ 0.88 µM)
